Data: article PMC6704710, “Preclinical evaluation of 3D185, a novel potent inhibitor of FGFR1/2/3 and CSF-1R, in FGFR-dependent and macrophage-dominant cancer models” (Journal of Experimental & Clinical Cancer Research : CR, 2019)

What was measured:
Assay in all cases: Eurofins kinase panel
Format in all cases: biochemical
Conditions in all cases: read-out: Inhibition rate (%)
[1] = molecular target: T1, ATR/ATRIP(h) (Homo sapiens, UniProt Q13535)
T1 construct: purchased Eurofins (KinaseProfiler)

[2] = molecular target: T2, CHK2(h) (Homo sapiens, UniProt O96017)
T2 construct: purchased Eurofins (KinaseProfiler)

[3] = molecular target: T3, CaMKK2(h) (Homo sapiens, UniProt Q96RR4)
T3 construct: purchased Eurofins (KinaseProfiler)

[4] = molecular target: T4, EGFR(T790M,L858R)(h) (Homo sapiens, UniProt P00533, L858R/T790M)
T4 construct: purchased Eurofins (KinaseProfiler)

[5] = molecular target: T5, EphA1(h) (Homo sapiens, UniProt P21709)
T5 construct: purchased Eurofins (KinaseProfiler)
T5 sequence (P21709 26-976): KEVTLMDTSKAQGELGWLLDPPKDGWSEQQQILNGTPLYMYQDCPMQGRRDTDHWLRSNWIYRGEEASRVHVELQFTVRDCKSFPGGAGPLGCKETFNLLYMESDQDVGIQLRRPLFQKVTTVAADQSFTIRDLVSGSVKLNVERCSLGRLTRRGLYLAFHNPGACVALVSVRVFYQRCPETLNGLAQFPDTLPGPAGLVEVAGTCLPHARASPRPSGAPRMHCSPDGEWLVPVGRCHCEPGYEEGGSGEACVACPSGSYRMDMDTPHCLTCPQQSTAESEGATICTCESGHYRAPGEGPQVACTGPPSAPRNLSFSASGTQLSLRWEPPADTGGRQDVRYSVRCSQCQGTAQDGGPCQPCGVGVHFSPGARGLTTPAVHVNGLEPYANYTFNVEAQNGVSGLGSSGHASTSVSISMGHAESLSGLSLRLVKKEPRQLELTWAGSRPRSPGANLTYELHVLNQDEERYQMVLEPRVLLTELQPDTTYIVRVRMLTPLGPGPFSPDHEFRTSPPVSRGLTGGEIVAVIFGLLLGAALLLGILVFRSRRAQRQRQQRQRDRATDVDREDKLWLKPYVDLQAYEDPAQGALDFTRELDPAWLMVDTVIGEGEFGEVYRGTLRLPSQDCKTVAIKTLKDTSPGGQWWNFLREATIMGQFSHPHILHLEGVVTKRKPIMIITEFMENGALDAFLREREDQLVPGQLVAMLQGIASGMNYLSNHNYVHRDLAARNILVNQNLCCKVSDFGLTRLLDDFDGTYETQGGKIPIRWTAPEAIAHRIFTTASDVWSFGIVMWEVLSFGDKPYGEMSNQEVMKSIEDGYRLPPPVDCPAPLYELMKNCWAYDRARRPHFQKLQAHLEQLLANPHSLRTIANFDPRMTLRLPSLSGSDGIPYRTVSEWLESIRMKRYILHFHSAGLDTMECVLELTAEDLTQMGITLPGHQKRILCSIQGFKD

[6] = molecular target: T6, Fer(h) (Homo sapiens, UniProt P16591)
T6 construct: purchased Eurofins (KinaseProfiler)

[7] = molecular target: T7, Fgr(h) (Homo sapiens, UniProt P09769)
T7 construct: purchased Eurofins (KinaseProfiler)

[8] = molecular target: T8, GRK6(h) (Homo sapiens, UniProt P43250)
T8 construct: purchased Eurofins (KinaseProfiler)

[9] = molecular target: T9, HIPK3(h) (Homo sapiens, UniProt Q9H422)
T9 construct: purchased Eurofins (KinaseProfiler)

[10] = molecular target: T10, IRAK1(h) (Homo sapiens, UniProt P51617)
T10 construct: purchased Eurofins (KinaseProfiler)

[11] = molecular target: T11, MYLK2(h) (Homo sapiens, UniProt Q9H1R3)
T11 construct: purchased Eurofins (KinaseProfiler)

[12] = molecular target: T12, Met(Y1248H)(h) (Homo sapiens, UniProt P08581, Y1230H)
T12 construct: purchased Eurofins (KinaseProfiler)

[13] = molecular target: T13, NLK(h) (Homo sapiens, UniProt Q9UBE8)
T13 construct: purchased Eurofins (KinaseProfiler)
T13 sequence (Q9UBE8 1-527): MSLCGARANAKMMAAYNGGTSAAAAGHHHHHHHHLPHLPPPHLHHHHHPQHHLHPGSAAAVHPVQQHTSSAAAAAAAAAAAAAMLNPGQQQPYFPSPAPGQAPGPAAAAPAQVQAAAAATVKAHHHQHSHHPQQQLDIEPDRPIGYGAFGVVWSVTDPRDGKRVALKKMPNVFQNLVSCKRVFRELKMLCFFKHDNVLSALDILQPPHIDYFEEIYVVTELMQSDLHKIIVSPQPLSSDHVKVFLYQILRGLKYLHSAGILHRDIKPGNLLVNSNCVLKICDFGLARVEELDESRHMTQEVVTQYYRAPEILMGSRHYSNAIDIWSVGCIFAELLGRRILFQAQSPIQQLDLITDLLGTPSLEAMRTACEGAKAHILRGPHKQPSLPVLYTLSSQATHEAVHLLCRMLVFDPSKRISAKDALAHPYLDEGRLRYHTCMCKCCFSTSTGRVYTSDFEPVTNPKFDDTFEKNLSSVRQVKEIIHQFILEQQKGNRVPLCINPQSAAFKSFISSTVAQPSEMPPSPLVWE

[14] = molecular target: T14, WNK1(h) (Homo sapiens, UniProt Q9H4A3)
T14 construct: purchased Eurofins (KinaseProfiler)

T2 sequence (O96017 whole entry): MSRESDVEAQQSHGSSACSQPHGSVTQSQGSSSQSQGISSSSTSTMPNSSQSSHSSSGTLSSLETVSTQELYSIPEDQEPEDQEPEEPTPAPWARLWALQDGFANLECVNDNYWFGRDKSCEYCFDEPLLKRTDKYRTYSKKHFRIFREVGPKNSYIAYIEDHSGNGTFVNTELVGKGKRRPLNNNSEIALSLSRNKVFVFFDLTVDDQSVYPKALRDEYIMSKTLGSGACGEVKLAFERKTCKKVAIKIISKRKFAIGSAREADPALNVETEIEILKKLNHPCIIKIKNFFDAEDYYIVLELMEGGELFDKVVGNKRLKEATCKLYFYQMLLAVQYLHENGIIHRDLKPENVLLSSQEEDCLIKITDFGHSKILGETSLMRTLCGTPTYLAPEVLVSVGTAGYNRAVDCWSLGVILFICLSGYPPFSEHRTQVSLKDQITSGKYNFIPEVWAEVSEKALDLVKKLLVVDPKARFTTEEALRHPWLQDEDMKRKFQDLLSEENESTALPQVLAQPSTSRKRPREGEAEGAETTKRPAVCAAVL
T6 sequence (P16591 whole entry): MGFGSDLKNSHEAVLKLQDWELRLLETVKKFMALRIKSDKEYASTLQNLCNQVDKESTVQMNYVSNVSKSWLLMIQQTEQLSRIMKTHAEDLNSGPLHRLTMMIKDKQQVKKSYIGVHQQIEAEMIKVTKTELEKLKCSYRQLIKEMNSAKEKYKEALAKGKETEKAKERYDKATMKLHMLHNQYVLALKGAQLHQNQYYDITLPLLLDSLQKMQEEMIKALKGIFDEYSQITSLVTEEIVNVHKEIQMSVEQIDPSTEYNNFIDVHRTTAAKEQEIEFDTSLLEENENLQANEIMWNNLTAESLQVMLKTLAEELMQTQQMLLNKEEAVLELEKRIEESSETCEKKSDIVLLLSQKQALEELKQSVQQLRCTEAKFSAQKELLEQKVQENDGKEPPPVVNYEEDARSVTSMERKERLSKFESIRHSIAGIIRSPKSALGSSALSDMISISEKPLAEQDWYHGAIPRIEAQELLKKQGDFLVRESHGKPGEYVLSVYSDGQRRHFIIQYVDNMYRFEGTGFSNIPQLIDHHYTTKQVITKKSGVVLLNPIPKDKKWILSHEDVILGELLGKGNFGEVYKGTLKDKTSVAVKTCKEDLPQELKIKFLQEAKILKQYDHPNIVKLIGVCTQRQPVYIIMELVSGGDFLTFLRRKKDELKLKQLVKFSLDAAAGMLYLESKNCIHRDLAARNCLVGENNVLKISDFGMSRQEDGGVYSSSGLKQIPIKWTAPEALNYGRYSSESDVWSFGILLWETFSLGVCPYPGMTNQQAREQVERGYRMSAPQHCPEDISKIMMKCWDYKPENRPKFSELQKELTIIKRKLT
T3 sequence (Q96RR4 whole entry): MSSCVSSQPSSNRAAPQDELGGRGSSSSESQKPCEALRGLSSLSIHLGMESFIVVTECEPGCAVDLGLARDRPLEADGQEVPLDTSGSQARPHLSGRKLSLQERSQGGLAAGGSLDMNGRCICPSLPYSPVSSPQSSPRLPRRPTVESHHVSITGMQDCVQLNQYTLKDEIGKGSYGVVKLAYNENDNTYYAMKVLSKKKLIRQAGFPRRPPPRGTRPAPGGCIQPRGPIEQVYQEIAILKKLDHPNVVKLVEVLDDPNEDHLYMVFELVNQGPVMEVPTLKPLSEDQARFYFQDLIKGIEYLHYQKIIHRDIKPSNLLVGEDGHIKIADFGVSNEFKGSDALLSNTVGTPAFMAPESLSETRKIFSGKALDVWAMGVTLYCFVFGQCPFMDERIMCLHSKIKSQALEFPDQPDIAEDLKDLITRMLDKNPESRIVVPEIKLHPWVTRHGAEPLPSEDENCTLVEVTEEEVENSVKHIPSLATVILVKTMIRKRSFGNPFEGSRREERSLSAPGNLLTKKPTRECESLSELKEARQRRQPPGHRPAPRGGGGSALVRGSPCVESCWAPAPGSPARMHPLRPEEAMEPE
T9 sequence (Q9H422 whole entry): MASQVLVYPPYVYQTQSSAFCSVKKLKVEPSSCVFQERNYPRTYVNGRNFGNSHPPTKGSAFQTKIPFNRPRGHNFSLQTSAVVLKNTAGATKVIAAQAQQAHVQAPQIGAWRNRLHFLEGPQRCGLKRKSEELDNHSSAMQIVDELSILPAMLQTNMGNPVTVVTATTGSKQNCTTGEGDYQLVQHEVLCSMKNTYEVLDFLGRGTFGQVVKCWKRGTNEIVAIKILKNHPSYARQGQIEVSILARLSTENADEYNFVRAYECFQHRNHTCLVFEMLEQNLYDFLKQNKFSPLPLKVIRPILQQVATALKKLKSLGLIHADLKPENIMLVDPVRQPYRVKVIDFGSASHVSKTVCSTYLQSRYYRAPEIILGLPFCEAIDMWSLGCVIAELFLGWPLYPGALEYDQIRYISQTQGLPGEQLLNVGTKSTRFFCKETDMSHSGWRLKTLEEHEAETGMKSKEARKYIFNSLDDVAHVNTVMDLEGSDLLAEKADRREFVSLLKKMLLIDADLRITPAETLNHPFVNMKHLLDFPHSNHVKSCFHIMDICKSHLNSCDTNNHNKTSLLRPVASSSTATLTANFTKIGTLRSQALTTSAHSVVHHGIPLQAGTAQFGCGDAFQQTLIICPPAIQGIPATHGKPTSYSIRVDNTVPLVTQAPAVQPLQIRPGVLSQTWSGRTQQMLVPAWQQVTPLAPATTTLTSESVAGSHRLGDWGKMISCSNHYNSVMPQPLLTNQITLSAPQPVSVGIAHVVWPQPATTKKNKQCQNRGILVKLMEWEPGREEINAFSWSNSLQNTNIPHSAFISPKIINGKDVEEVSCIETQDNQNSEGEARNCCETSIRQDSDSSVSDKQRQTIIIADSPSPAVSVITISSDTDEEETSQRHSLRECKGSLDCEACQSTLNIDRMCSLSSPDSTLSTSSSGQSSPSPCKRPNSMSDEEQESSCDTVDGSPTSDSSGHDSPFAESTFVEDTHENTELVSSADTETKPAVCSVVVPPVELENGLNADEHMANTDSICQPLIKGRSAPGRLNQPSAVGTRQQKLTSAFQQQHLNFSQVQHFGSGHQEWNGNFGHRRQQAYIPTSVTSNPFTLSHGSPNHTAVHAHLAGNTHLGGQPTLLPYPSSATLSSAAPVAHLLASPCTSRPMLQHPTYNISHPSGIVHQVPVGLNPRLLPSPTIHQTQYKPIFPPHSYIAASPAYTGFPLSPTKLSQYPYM
T7 sequence (P09769 whole entry): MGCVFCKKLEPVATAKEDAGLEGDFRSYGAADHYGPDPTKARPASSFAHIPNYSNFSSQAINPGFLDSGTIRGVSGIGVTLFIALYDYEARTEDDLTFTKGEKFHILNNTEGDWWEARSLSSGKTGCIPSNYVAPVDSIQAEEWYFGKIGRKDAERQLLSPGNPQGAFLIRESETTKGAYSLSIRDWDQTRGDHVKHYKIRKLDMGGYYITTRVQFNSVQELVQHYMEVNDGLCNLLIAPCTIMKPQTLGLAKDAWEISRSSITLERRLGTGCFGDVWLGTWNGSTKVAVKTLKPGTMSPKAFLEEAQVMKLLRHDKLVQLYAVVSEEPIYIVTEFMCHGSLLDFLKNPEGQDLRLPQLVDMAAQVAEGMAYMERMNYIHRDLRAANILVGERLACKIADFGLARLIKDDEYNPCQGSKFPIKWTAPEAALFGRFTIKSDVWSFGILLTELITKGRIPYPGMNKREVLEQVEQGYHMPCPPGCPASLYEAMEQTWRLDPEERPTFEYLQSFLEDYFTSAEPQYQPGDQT
T4 sequence (P00533 25-1210 T790M/L858R): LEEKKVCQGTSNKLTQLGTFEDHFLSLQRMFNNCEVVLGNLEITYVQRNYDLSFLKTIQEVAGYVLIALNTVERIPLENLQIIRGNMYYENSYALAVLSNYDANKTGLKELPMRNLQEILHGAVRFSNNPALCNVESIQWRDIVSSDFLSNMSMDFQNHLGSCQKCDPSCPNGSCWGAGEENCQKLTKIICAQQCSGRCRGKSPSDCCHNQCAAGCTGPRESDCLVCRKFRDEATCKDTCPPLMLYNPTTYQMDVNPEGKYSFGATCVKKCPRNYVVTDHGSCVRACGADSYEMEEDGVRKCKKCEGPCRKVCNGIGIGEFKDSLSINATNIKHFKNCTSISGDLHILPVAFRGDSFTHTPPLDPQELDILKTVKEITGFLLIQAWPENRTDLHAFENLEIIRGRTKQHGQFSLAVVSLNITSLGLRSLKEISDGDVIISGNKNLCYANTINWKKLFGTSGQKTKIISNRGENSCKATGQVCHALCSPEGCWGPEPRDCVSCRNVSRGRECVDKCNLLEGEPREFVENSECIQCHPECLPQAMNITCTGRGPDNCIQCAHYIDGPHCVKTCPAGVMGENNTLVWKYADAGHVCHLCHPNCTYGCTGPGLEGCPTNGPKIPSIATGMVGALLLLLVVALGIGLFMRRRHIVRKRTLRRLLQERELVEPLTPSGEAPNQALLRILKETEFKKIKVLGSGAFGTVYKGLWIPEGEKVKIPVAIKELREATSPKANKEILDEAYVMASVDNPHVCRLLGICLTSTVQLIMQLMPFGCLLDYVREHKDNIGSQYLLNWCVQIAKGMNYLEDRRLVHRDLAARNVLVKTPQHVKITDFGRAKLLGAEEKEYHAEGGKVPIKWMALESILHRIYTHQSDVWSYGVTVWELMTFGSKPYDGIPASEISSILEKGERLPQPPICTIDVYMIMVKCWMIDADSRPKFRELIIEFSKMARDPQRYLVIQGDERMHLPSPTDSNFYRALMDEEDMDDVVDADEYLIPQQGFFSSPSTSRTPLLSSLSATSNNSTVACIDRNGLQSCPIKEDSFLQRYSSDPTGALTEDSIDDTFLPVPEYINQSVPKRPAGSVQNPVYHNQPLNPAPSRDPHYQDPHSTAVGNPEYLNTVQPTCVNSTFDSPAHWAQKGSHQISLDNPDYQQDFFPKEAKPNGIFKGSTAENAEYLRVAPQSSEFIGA

For `COc1cc(OC)c(Cl)c(-c2ccc3c(NC(=O)c4ccc(N5CCNC(C)(C)C5)cc4)n[nH]c3n2)c1Cl` [3D185], which inhibition at 0.01 µM ([1]; 10 nM) is on record?
Its inhibition at 0.01 µM is -4%.

And the inhibition at 0.1 µM ([1]; 100 nM)?
The inhibition at 0.1 µM was 10%.

And the inhibition at 1 µM ([1]; 1000 nM)?
Its inhibition at 1 µM is 6%.

And the inhibition at 0.01 µM ([2]; 10 nM)?
Its inhibition at 0.01 µM is 0%.

What about the inhibition at 0.1 µM ([2]; 100 nM) of the same compound?
Its inhibition at 0.1 µM is 4%.

What about the inhibition at 1 µM ([2]; 1000 nM) of the same compound?
The inhibition at 1 µM was 11%.

And the inhibition at 0.01 µM ([3]; 10 nM)?
The inhibition at 0.01 µM was -4%.

What about the inhibition at 0.1 µM ([3]; 100 nM) of the same compound?
The inhibition at 0.1 µM was -22%.

What about the inhibition at 1 µM ([3]; 1000 nM) of the same compound?
Its inhibition at 1 µM is 4%.

And the inhibition at 0.01 µM ([4]; 10 nM)?
Its inhibition at 0.01 µM is 6%.

And the inhibition at 0.1 µM ([4]; 100 nM)?
The inhibition at 0.1 µM was 38%.

And the inhibition at 1 µM ([4]; 1000 nM)?
The inhibition at 1 µM was 79%.

And the inhibition at 0.01 µM ([5]; 10 nM)?
The inhibition at 0.01 µM was 0%.

And the inhibition at 0.1 µM ([5]; 100 nM)?
Its inhibition at 0.1 µM is -14%.

What about the inhibition at 1 µM ([5]; 1000 nM) of the same compound?
The inhibition at 1 µM was -6%.

And the inhibition at 0.01 µM ([6]; 10 nM)?
The inhibition at 0.01 µM was -11%.

And the inhibition at 0.1 µM ([6]; 100 nM)?
Its inhibition at 0.1 µM is 0%.

What about the inhibition at 1 µM ([6]; 1000 nM) of the same compound?
Its inhibition at 1 µM is 42%.

What about the inhibition at 0.01 µM ([7]; 10 nM) of the same compound?
Its inhibition at 0.01 µM is 11%.

And the inhibition at 0.1 µM ([7]; 100 nM)?
The inhibition at 0.1 µM was 44%.

And the inhibition at 1 µM ([7]; 1000 nM)?
Its inhibition at 1 µM is 89%.

And the inhibition at 0.01 µM ([8]; 10 nM)?
The inhibition at 0.01 µM was -4%.

And the inhibition at 0.1 µM ([8]; 100 nM)?
The inhibition at 0.1 µM was -6%.

What about the inhibition at 1 µM ([8]; 1000 nM) of the same compound?
Its inhibition at 1 µM is -5%.

What about the inhibition at 0.01 µM ([9]; 10 nM) of the same compound?
The inhibition at 0.01 µM was -2%.

What about the inhibition at 0.1 µM ([9]; 100 nM) of the same compound?
The inhibition at 0.1 µM was -12%.

And the inhibition at 1 µM ([9]; 1000 nM)?
Its inhibition at 1 µM is -8%.

And the inhibition at 0.01 µM ([10]; 10 nM)?
Its inhibition at 0.01 µM is 4%.

What about the inhibition at 0.1 µM ([10]; 100 nM) of the same compound?
Its inhibition at 0.1 µM is 0%.

What about the inhibition at 1 µM ([10]; 1000 nM) of the same compound?
The inhibition at 1 µM was 19%.

What about the inhibition at 0.01 µM ([11]; 10 nM) of the same compound?
The inhibition at 0.01 µM was 7%.

What about the inhibition at 0.1 µM ([11]; 100 nM) of the same compound?
Its inhibition at 0.1 µM is 0%.

What about the inhibition at 1 µM ([11]; 1000 nM) of the same compound?
The inhibition at 1 µM was 21%.

What about the inhibition at 0.01 µM ([12]; 10 nM) of the same compound?
The inhibition at 0.01 µM was -16%.

And the inhibition at 0.1 µM ([12]; 100 nM)?
Its inhibition at 0.1 µM is 8%.

What about the inhibition at 1 µM ([12]; 1000 nM) of the same compound?
The inhibition at 1 µM was 46%.

And the inhibition at 0.01 µM ([13]; 10 nM)?
The inhibition at 0.01 µM was 0%.

And the inhibition at 0.1 µM ([13]; 100 nM)?
The inhibition at 0.1 µM was -6%.

What about the inhibition at 1 µM ([13]; 1000 nM) of the same compound?
Its inhibition at 1 µM is 3%.

And the inhibition at 0.01 µM ([14]; 10 nM)?
The inhibition at 0.01 µM was 3%.

And the inhibition at 0.1 µM ([14]; 100 nM)?
Its inhibition at 0.1 µM is 2%.

And the inhibition at 1 µM ([14]; 1000 nM)?
Its inhibition at 1 µM is 16%.
